Measurements: patent publication US20020111353A1, “Inhibitors of c-Jun N-terminal kinases (JNK) and other protein kinases” (priority 2000, published 2002)

Experiments:
Assay type in all cases: biochemical
[1] = molecular target: activated p38 (Homo sapiens, UniProt Q16539); experiment: p38 inhibition assay; conditions: read-out: p38 (Ki rating)
Procedure: Two splice variants of human p38 kinase, CSBP1 and CSBP2, have been identified. […] The polymerase chain reaction product was cloned into the pET-15b vector (Novagen). The baculovirus transfer vector, pVL-(His)6-p38 was constructed by subcloning a XbaI-BamHI fragment of pET15b-(His)6-p38 into the complementary sites in plasmid pVL1392 (Pharmingen).
p38 was activated by combining 0.5 mg/ml p38 with 0.005 mg/ml DD-double mutant MKK6 in Buffer B+10 mM MgCl2, 2 mM ATP, 0.2 mM Na2VO4 for 30 minutes at 20° C. The activation mixture was then loaded onto a 1.0×10 cm MonoQ column (Pharmacia) and eluted with a linear 20 column volume gradient to 1.0 M NaCl in Buffer B. The activated p38 eluted after the ADP and ATP. The activated p38 peak was pooled and dialyzed against buffer B+0.2 mM Na2VO4 to remove the NaCl. The dialyzed protein was adjusted to 1.1M potassium phosphate by addition of a 4.0M stock solution and loaded onto a 1.0×10 cm HIC (Rainin Hydropore) column previously equilibrated in Buffer D (10% glycerol, 20 mM β-glycerophosphate, 2.0 mM DTT) +1.1MK2HPO4. The protein was eluted with a 20 column volume linear gradient to Buffer D+50 mM K2HPO4. The double phosphorylated p38 eluted as the main peak and was pooled for dialysis against Buffer B+0.2 mM Na2VO4 The activated p38 was stored at −70° C.
This assay is carried out in the presence of 10 mM MgCl2 and 100 mM HEPES buffer at pH 7.6. For a typical IC50 determination, a stock solution is prepared containing all of the above components and activated p38 (5 nM). The stock solution is aliquotted into vials. A fixed volume of DMSO or inhibitor in DMSO (final concentration of DMSO in reaction is 5%) is introduced to each vial, mixed and incubated for 15 minutes at room temperature. EGF receptor peptide, […], a phosphoryl acceptor in p38-catalyzed kinase reaction, is added to each vial to a final concentration of 200 μM. The kinase reaction is initiated with ATP (100 μM) and the vials are incubated at 30° C. After 30 minutes, the reactions are quenched with equal volume of 10% trifluoroacetic acid (TFA).
The phosphorylated peptide is quantified by HPLC analysis. Separation of phosphorylated peptide from the unphosphorylated peptide is achieved on a reverse phase column (Deltapak, 5 μm, C18 100D, part no. 011795) with a binary gradient of water and acteonitrile, each containing 0.1% TFA. IC50 (concentration of inhibitor yielding 50% inhibition) is determined by plotting the % activity remaining against inhibitor concentration.
This assay is carried out in the presence of 10 mM MgCl2, 25 mM β-glycerophosphate, 10% glycerol and 100 mM HEPES buffer at pH 7.6. For a typical Ki determination, the Km for ATP in the ATPase activity of activated p38 reaction is determined in the absence of inhibitor and in the presence of two concentrations of inhibitor. Ki is determined from the rate data as a function of inhibitor and ATP concentrations. A stock solution is prepared containing all of the above components and activated p38 (60 nM). The stock solution is aliquotted into vials. A fixed volume of DMSO or inhibitor in DMSO (final concentration of DMSO in reaction is 2.5%) is introduced to each vial, mixed and incubated for 15 minutes at room temperature. The reaction is initiated by adding various concentrations of ATP and then incubated at 30° C. After 30 minutes, the reactions are quenched with 50 μl of EDTA (0.1 M, final concentration), pH 8.0. The product of p38 ATPase activity, ADP, is quantified by HPLC analysis.
Separation of ADP from ATP is achieved on a reversed phase column (Supelcosil, LC-18, 3 μm, part no. 5-8985) using a binary solvent gradient of following composition: Solvent A—0.1 M phosphate buffer containing 8 mM tetrabutylammonium hydrogen sulfate (Sigma Chemical Co., catalogue no. T-7158), Solvent B—Solvent A with 30% methanol.

[2] = molecular target: T1, activated JNK3 (Homo sapiens, UniProt P53779); experiment: JNK3 inhibition, spectrophotometric coupled-enzyme assay; conditions: for Ki: activated JNK3 10 nM, 10 μM ATP, 30° C., read-out: JNK3 (Ki rating); for p38/JNK3: ratio of p38 to JNK3 activity as a measure of selectivity
T1 construct: One such construct encodes amino acid residues Ser40-Glu402 of JNK3α1 and is preceded by Met and Gly residues; Met-Gly (added initiation methionine and glycine, from the NcoI cloning site) (N); made in house; host or cells: E. coli BL21 (DE3)
T1 sequence (P53779 40-402): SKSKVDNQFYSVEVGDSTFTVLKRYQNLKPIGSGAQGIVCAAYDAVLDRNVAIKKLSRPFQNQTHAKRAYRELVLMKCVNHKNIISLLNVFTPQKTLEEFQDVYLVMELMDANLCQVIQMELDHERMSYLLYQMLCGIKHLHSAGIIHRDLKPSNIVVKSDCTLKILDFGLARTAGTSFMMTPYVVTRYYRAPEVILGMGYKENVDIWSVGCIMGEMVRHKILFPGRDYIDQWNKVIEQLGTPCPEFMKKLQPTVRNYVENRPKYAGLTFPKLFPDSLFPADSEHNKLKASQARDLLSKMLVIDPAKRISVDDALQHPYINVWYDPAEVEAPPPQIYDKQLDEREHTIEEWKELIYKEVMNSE
From the text: A BLAST search of the EST database using the published JNK3α1 cDNA as a query identified an EST clone (#632588) that contained the entire coding sequence for human JNK3α1. Polymerase chain reactions (PCR) using pfu polymerase (Strategene) were used to introduce restriction sites into the CDNA for cloning into the pET-15B expression vector at the NcoI and BamHI sites. The protein was expressed in E. coli. Due to the poor solubility of the expressed full-length protein (Met 1-Gln 422), an N-terminally truncated protein starting at Ser residue at position 40 (Ser 40) was produced. This truncation corresponds to Ser 2 of JNK1 and JNK2 proteins, and is preceded by a methionine (initiation) and a glycine residue. The glycine residue was added in order to introduce an NcoI site for cloning into the expression vector. In addition, systematic C-terminal truncations were performed by PCR to identify a construct that give rise to diffraction-quality crystals. One such construct encodes amino acid residues Ser40-Glu402 of JNK3α1 and is preceded by Met and Gly residues.
Five mg of JNK3 was diluted to 0.5 mg/ml in 50 mM HEPES buffer, pH 7.5, containing 100 mM NaCl, 5 mM DTT, 20 mM MgCl2 and 1 mM ATP. GST-MKK7(DD) was added at a molar ratio of 1:2.5 GST-MKK7:JNK3. After incubation for 30 minutes at 25° C., the reaction mixture was concentrated 5-fold by ultrafiltration in a Centriprep-30 (Amicon, Beverly, Mass.), diluted to 10 ml and an additional 1 mM ATP added. This procedure was repeated three times to remove ADP and replenish ATP. The final addition of ATP was 5 mM and the mixture incubated overnight at 4° C.
The activated JNK3/GST-MKK7(DD) reaction mixture was exchanged into 50 mM HEPES buffer, pH 7.5, containing 5 mM DTT and 5% glycerol (w/v) by dialysis or ultrafiltration. The reaction mixture was adjusted to 1.1 M potassium phosphate, pH 7.5, and purified by hydrophobic interaction chromatography (at 25° C.) using a Rainin Hydropore column. […] Activated JNK3 (i.e. doubly phosphorylated JNK3) was stored at −70° C. at 0.25-1 mg/ml.
(§1) Compounds were assayed for the inhibition of JNK3 by a spectrophotometric coupled-enzyme assay. In this assay, a fixed concentration of activated JNK3 (10 nM) was incubated with various concentrations of a potential inhibitor dissolved in DMSO for 10 minutes at 30° C. in a buffer containing 0.1 M HEPES buffer, pH 7.5, containing 10 mM MgCl2, 2.5 mM phosphoenolpyruvate, 200 μM NADH, 30 μg/mL pyruvate kinase, 10 μg/mL lactate dehydrogenase, and 200 μM EGF receptor peptide. The EGF receptor peptide has the sequence […], and is a phosphoryl acceptor in the JNK3-catalyzed kinase reaction. The reaction was initiated by the addition of 10 μM ATP and the assay plate is inserted into the spectrophotometer's assay plate compartment that was maintained at 30° C. The decrease of absorbance at 340 nm was monitored as a function of time. The rate data as a function of inhibitor concentration was fitted to competitive inhibition kinetic model to determine the Ki.

[3] = molecular target: JNK2 (Homo sapiens, UniProt P45984); experiment: JNK2 inhibition assay (spectrophotometric coupled-enzyme assay, analogous to JNK3); conditions: read-out: JNK2 (Ki rating)
Sequence of JNK2 (P45984 whole entry, species assumed): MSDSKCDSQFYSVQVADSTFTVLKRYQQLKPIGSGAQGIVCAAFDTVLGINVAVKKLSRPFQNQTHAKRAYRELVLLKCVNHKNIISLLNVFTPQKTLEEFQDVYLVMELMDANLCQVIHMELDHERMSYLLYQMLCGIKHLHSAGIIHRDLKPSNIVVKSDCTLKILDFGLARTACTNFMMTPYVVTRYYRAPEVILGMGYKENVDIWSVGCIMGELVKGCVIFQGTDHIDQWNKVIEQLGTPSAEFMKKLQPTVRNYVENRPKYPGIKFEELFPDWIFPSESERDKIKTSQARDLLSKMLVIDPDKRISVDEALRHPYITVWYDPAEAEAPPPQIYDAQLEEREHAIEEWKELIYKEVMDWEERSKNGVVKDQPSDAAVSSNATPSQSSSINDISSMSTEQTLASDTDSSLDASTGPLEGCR
Procedure: as §1
(§2) The JNK1 and JNK2 assays were performed in an analogous manner.

[4] = molecular target: JNK1 (Homo sapiens, UniProt P45983); experiment: JNK1 inhibition assay (spectrophotometric coupled-enzyme assay, analogous to JNK3); conditions: read-out: JNK1 (Ki rating)
Sequence of JNK1 (P45983 whole entry, species assumed): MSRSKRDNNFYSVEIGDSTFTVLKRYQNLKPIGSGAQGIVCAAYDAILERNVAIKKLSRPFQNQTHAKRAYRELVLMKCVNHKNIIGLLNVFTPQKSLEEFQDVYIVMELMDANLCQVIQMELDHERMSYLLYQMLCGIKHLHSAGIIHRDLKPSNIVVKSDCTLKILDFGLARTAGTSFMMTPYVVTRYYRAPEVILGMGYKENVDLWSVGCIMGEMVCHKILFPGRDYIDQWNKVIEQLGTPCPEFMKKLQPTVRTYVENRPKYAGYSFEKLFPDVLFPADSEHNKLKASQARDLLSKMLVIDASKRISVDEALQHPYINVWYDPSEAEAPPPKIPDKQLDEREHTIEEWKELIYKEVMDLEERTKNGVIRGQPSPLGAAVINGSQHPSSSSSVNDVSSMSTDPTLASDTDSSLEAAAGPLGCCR
Procedure: as §1, §2

Sequence of activated p38 (Q16539 whole entry, the tested form may be a part, canonical isoform): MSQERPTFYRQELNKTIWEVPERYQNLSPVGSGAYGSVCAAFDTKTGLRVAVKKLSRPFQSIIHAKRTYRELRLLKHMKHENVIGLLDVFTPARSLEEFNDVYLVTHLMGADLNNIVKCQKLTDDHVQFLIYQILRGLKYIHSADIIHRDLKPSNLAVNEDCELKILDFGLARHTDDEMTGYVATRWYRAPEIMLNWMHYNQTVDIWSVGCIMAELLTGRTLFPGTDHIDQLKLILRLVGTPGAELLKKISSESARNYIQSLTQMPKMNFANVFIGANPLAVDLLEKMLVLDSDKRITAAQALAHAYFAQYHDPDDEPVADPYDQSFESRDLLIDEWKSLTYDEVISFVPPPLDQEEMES

| SMILES | Ki [1] | Ki [2] | p38/JNK3 [2] | Ki [3] | Ki [4] |
| --- | --- | --- | --- | --- | --- |
| Clc1ccc(Cl)c(-n2cc(-c3ccnc(NC4CCCCC4)n3)cn2)c1 [II-71] | > 10 µM | < 2 µM | >10 | < 2 µM | < 2 µM |
| Fc1ccc(-n2cc(-c3ccnc(NC4CCCCC4)n3)cn2)c(F)c1 [II-72, Cyclohexyl-{4-[l-(2,4-difluoro-phenyl)-1H-pyrazol-4-yl]-pyrimidin-2-yl}-amine] | > 10 µM | < 2 µM | >10 | < 2 µM | < 2 µM |
| Cc1c(-c2ccnc(Nc3ccc(F)cc3)n2)cnn1-c1ccccc1 [II-100] | > 10 µM | < 2 µM | >10 | < 2 µM | < 2 µM |
| Cc1c(-c2ccnc(Nc3ccc(Cl)cc3)n2)cnn1-c1ccccc1 [II-101] | > 10 µM | < 2 µM | >10 | < 2 µM | < 2 µM |
| Cc1c(-c2ccnc(Nc3ccc([N+](=O)[O-])cc3)n2)cnn1-c1ccccc1 [II-102] | > 10 µM | < 2 µM | >10 | < 2 µM | < 2 µM |

The next lines start with the values.

| Ki [1] | Ki [2] | p38/JNK3 [2] | Ki [3] | Ki [4] | SMILES |
| --- | --- | --- | --- | --- | --- |
| > 10 µM | < 2 µM | >10 | < 2 µM | < 2 µM | c1ccc(Cn2cc(-c3ccnc(NC4CCCCC4)n3)cn2)cc1 [II-65] |
| > 10 µM | < 2 µM | >10 | < 2 µM | < 2 µM | c1ccc(-n2cc(-c3ccnc(NC4CCCCC4)n3)cn2)cc1 [II-67] |
| > 10 µM | < 2 µM | ≧10 | 2 to 10 µM | 2 to 10 µM | COc1ccc(-n2cc(-c3ccnc(NC4CCCCC4)n3)cn2)cc1 [II-70] |
